Key:
[1] = system: human perception of TMA odor ("fishy"); experiment: Human perceptual ratings of fishiness of TMA with antagonist or control odor (air-dilution olfactometer); type: in vivo; details: human subjects, TMA 3 mM, 1 mM, 0.33 mM, odors intensity-balanced to 1 mM TMA
Description: We evaluated the efficacy of the in vitro antagonists on human perception. We asked 10 (FIG. 5A) or 29 (FIG. 5B) subjects to rate how “fishy” and how “pleasant” an odor was. The odors were delivered to the subject using an air-dilution olfactometer (Lundström, J. N., et al., 2010 International Journal of Psychophysiology, 78(2), 179-189; doi:10.1016/j.ijpsycho.2010.07.007) and each trial consisted of one concentration of trimethylamine (either 3 mM, 1 mM, 0.33 mM, or a water blank) combined with either an antagonist or a solvent blank. Subjects used a general labeled magnitude scale to rate how “fishy” the odor smelled and a scale from −10 to +10 to rate the pleasantness.
The antagonists and control odors were intensity-balanced to match the 1 mM concentration of TMA. Trans-2-nonen-1-ol was diluted in Diethyl phthalate (DEP); TMA was diluted in water with NaOH added; Linalool was diluted in DEP. In all trials subjects received air from jars containing water and DEP so that solvent presence could not be used as a cue to the presence of the test odor.

TAAR5 [2] = molecular target: T1, TAAR5 (Homo sapiens, UniProt O14804); experiment: Antagonist screen of odor library on TAAR5 with agonist TMA (Dual-Glo luciferase assay, Hana3A cells); type: cell-based; parameters: TAAR open reading frames were amplified from pooled human genomic DNA using Phusion polymerase and subcloned into a pCI expression vector; Rho tag (first 20 residues of human rhodopsin); expressed in transfected cells; host or cells: Hana3A cells; details: inhibition of TMA/TAAR5 response; test odor at 30 μM; TMA at EC80; read-out: Percent Inhibition
T1 sequence (O14804 1-337): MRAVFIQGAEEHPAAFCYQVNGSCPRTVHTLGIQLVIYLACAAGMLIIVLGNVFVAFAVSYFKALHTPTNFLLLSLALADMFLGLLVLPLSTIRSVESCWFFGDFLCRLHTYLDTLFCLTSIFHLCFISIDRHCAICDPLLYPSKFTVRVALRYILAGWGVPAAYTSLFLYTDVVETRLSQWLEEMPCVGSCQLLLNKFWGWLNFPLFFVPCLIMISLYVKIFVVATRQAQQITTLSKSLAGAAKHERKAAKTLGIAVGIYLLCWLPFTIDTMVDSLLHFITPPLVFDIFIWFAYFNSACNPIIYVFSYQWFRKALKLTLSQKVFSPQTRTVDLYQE
Description: We screened a TAAR of interest, TAAR5, with the agonist TMA added at the EC80 concentration, against a proprietary small-molecule library to identify antagonists. TAAR open reading frames were amplified from pooled human genomic DNA using Phusion polymerase and subcloned into a pCI expression vector (Promega) containing the first 20 residues of human rhodopsin (Rho tag). […] Hana3A cells were transfected with 5 ng/well of RTP1S, 5 ng/well of pRL-SV40, 10 ng/well of CRE-luciferase, 2.5 ng/well of M3, and 5 ng/well of odorant receptor. 1M odorant stocks were diluted in DMSO. 24 hours following transfection, transfection media was removed and replaced with the appropriate concentration of odor diluted from the 1M stocks in CD293 (Gibco). Four hours following odor stimulation luminescence was measured using a Synergy 2 plate reader (Biotek). All luminescence values were divided by the Renilla Luciferase activity to control for transfection efficiency in a given well.
We completed an antagonist screen of a proprietary library of odors, including the 52 odorous compounds identified in FIG. 4 at a concentration of 30 μM.

[3] = system: human perception of TMA odor (mixture suppression); experiment: Split-nostril experiment, physical vs dichorhinic mixtures with TMA; type: in vivo; details: human subjects, TMA with probe odorant
Excerpt: Mixture suppression has both a central and peripheral component (Laing, D., & Willcox, M. (1987). An investigation of the mechanisms of odor suppression using physical and dichorhinic mixtures. Behavioural Brain Research, 26(2-3), 79-87. http://doi.org/10.1016/0166-4328(87)90157-4). […] To test this we carried out split-nostril experiments using stimuli in glass jars. We compared TMA-alone, TMA mixed with the probe odorant in the same nostril (physical mixture), and TMA mixed with the probe odorant in different nostrils (dichorhinic mixture) (FIG. 7). […] Subjects were instructed to make intensity judgements during inhalation to avoid retronasal contamination across nostrils. This allowed us to separate central and peripheral components of the mixture suppression.

TAAR5 [4] = molecular target: T1, TAAR5; experiment: Dose responses on TAAR5 in luciferase assay (antagonist dose-dependent inhibition with TMA at EC80; TMA dose response with antagonist at IC10, IC30, IC50); type: cell-based; parameters: TAAR open reading frames were amplified from pooled human genomic DNA using Phusion polymerase and subcloned into a pCI expression vector; Rho tag (first 20 residues of human rhodopsin); expressed in transfected cells; host or cells: Hana3A cells; details: TAAR5 luciferase
Excerpt: We screened a TAAR of interest, TAAR5, with the agonist TMA added at the EC80 concentration, against a proprietary small-molecule library to identify antagonists. TAAR open reading frames were amplified from pooled human genomic DNA using Phusion polymerase and subcloned into a pCI expression vector (Promega) containing the first 20 residues of human rhodopsin (Rho tag). The sequences of the cloned receptors were verified by sequencing (3730xl Sequencer, ABI Biosystems). We used the Dual-Glo™ Luciferase Assay System (Promega) to measure receptor responses as previously described in Trimmer, C. et al 2014 High-throughput Analysis of Mammalian Olfactory Receptors: Measurement of Receptor Activation via Luciferase Activity. Journal of Visualized Experiments, (88). doi:10.3791/51640. Hana3A cells were transfected with 5 ng/well of RTP1S, 5 ng/well of pRL-SV40, 10 ng/well of CRE-luciferase, 2.5 ng/well of M3, and 5 ng/well of odorant receptor. 1M odorant stocks were diluted in DMSO. 24 hours following transfection, transfection media was removed and replaced with the appropriate concentration of odor diluted from the 1M stocks in CD293 (Gibco). Four hours following odor stimulation luminescence was measured using a Synergy 2 plate reader (Biotek). All luminescence values were divided by the Renilla Luciferase activity to control for transfection efficiency in a given well.
In a secondary experiment, we ran dose dependent inhibition responses for the top twelve antagonists, i.e., the top 12 compounds identified in FIG. 4. TMA was kept at the EC80 (500 μM) and the twelve antagonists were diluted in a dose response with the highest concentration at 1000 μM. The top five candidate compounds, i.e., phenethyl benzoate, trans-2-nonen-1-ol, isoeugenyl phenlacetate, tributyl-2-acetylcitrate, bis(2-methyl-3-furyl)disulfide, were rescreened using an antagonist dose response at 2500 μM. We determined the IC80 values for those five antagonists. Using those IC80 values, we completed a 3-fold dilution dose response of TMA, starting at 3000 μM, in the presence of our five candidate antagonists. […] It was difficult to determine if the five antagonists were competitive or non-competitive inhibitors using the very high IC80 concentrations of the antagonists.
In another experiment, we evaluated dose responses of TMA in the presence of the antagonist at their IC10, IC30 and IC50 concentrations.

TAAR5 [5] = molecular target: T1, TAAR5; details: cited from earlier work

Row | SMILES | effect on perceived fishy rating of TMA ([1]; listed as Trans-2-nonen-1-ol) | effect on perceived fishy rating of TMA ([1]; listed as trans-2-nonen-1-ol) | inhibition at 30 µM (TAAR5 [2]) [%] | peripheral component of mixture suppression [3] | IC50 (TAAR5 [4]; vs TMA, highest of the three concentrations in FIG. 2, read-out: IC50 concentration of antagonist) [µM] | IC10 concentration of antagonist (TAAR5 [4]; vs TMA, lowest of the three concentrations in FIG. 2) [µM] | IC30 concentration of antagonist (TAAR5 [4]; vs TMA, middle of the three concentrations in FIG. 2) [µM] | EC80 of agonist on TAAR5 (TAAR5 [4]) [µM] | activation of human TAAR5 (TAAR5 [5])
1 | CCCCCC/C=C/CO [Trans-2-Nonen-1-ol] | significantly decreased the perceived fishy rating | decreases fishy intensity | 89.3 | larger peripheral component of mixture suppression than the control odorant linalool | 703 | 100 | 316.22 | – | –
2 | CN(C)C [TMA, trimethylamine, reference compound] | – | – | – | – | – | – | – | 500 | activated in a concentration-dependent manner
